Measurements from US5723462A, “Certain fused pyrrolecarboxamides a new class of GABA brain receptor ligands” (Neurogen Corporation, priority 1996, dated 1998).
pKi: −log10 of the molar value.

Target: GABAa receptor
Experiment: GABAa receptor binding assay ([3H]-Flumazenil, RO15-1788 displacement, rat cortical tissue)
Conditions: 0.5 nM 3H-RO15-1788, 30 min at 4° C.
Protocol: The pharmaceutical utility of compounds of this invention are indicated by the following assay for GABAa receptor binding activity.
Assays are carried out as described in Thomas and Tallman (J. Bio. Chem. 156: 9838-9842, J. Neurosci. 3: 433-440, 1983). Rat cortical tissue is dissected and homogenized in 25 volumes (w/v) of 0.05M Tris HCl buffer (pH 7.4 at 4° C.). The tissue homogenate is centrifuged in the cold (4° ) at 20,000×g for 20'. The supernatant is decanted and the pellet is rehomogenized in the same volume of buffer and again centrifuged at 20,000×g. The supernatant is decanted and the pellet is frozen at -20° C. overnight. The pellet is then thawed and rehomogenized in 25 volume (original wt/vol) of buffer and the procedure is carried out twice. The pellet is finally resuspended in 50 volumes (w/vol of 0.05M Tris HCl buffer (pH 7.4 at […]).
Incubations contain […] of tissue homogenate, […] of radioligand 0.5 nM (^3 H-RO15-1788 [^3 H-Flumazenil] specific activity 80 Ci/mmol), drug or blocker and buffer to a total volume of […]. Incubations are carried for 30 min at 4° C. then are rapidly filtered through GFB filters to separate free and bound ligand. Filters are washed twice with fresh 0.05M Tris HCl buffer (pH 7.4 at 4° C.) and counted in a liquid scintillation counter. 1.0 mM diazepam is added to some tubes to determine nonspecific binding. Data are collected in triplicate determinations, averaged and % inhibition of total specific binding is calculated. Total Specific Binding=Total-Nonspecific. In some cases, the amounts of unlabeled drugs is varied and total displacement curves of binding are carried out. Data are converted to IC50 or Ki.

Compound | pKi
COc1ccc2ccc(NC(=O)c3c[nH]c4c3C(=O)CCC4)nc2n1 [Compound 3, N-(2-methoxy-1,8-napthyridin-7-yl)-4-oxo-4,5,6,7-tetrahydro-1H-indole-3-carboxamide] | 7.18
O=C(Nc1cccnc1)c1c[nH]c2c1C(=O)CCCC2 [Compound 6, N-(3-Pyridyl)-4-oxo-1,4,5,6,7,8-hexahydro-cyclohepta[b]pyrrole-3-carboxamide] | 7.60
O=C(Nc1ccsc1)c1c[nH]c2c1C(=O)CCC2 [Compound 2, N-(3-thienyl)-4-oxo-4,5,6,7-tetrahydro-1H-indole-3-carboxamide] | 8.52
Cc1cnc(NC(=O)c2c[nH]c3c2C(=O)CCC3)s1 [Compound 9, N-(5-Methyl-2-thiazolyl)-4-oxo-4,5,6,7-tetrahydro-1H-indole-3-carboxamide] | 8.05
Cc1cnc2nc(NC(=O)c3c[nH]c4c3C(=O)CCC4)ccc2c1 [Compound 11] | 8.52
O=C(Nc1nccs1)c1c[nH]c2c1C(=O)CCCC2 [Compound 5, N-(2-Thiazolyl)-4-oxo-1,4,5,6,7,8-hexahydro-cyclohepta[b]pyrrole-3-carboxamide] | 8.70
O=C(Nc1ccc2ccccc2n1)c1c[nH]c2c1C(=O)CCC2 [Compound 12, N-(2-Quinolinyl)-4-oxo-4,5,6,7-tetrahydro-1H-indole-3-carboxamide] | 7.30
CC1(C)CCc2[nH]cc(C(=O)Nc3nccs3)c2C1=O [Compound 8, N-(2-Thiazolyl)-4-oxo-5,5-dimethyl-4,5,6,7-tetrahydro-1H-indole-3-carboxamide] | 8.70
COc1ccc(NC(=O)c2c[nH]c3c2C(=O)CCC3)cn1 [Compound 1] | 7.96
O=C(Nc1ccc2ccc(Cl)nc2n1)c1c[nH]c2c1C(=O)CCC2 [Compound 10, N-(2-Chloro-1,8-napthyridin-7-yl)-4-oxo-4,5,6,7-tetrahydro-1H-indole-3-carboxamide] | 7.08
O=C(Nc1ccc2nccnc2c1)c1c[nH]c2c1C(=O)CCC2 [Compound 13, N-(6-Quinoxalinyl)-4-oxo-4,5,6,7-tetrahydro-1H-indole-3-carboxamide] | 7.19
CC1(C)CCc2[nH]cc(C(=O)Nc3ccsc3)c2C1=O [Compound 7, N-(3-Thienyl)-4-oxo-5,5-dimethyl-4,5,6,7-tetrahydro-1H-indole-3-carboxamide] | 7.82
O=C(Nc1ccccn1)c1c[nH]c2c1C(=O)CCC2 [Compound 4, N-(2-Pyridyl)-4-oxo-4,5,6,7-tetrahydro-1H-indole-3-carboxamide] | 8.52

Test system: GABA receptor
Experiment: not given
Conditions: Tallman et al., 1978; cited from earlier work

Compound | blockade of the enhancement of benzodiazepine binding by GABA agonists
CN1CCc2cc3c(cc2C1C1OC(=O)c2c1ccc1c2OCO1)OCO3 (single isomer, unassigned; (+)) [(+) bicuculline] | blocked
CN1CCc2cc3c(cc2C1C1OC(=O)c2c1ccc1c2OCO1)OCO3 (single isomer, unassigned; (-)) [(-) bicuculline] | much less active
